Measurements from patent US9040528B2, “Chemical compounds 542” (AstraZeneca AB, priority 2008, dated 2015).
pIC50: −log10 of the molar value.

Molecular target: Escherichia coli DNA gyrase A/B tetramer (Escherichia coli (strain K12), UniProt P0AES4+P0AES6)
Assay: DNA gyrase supercoiling activity fluorescence polarisation assay
Assay type: biochemical
Conditions: 5 nM enzyme, relaxed plasmid, 0.3 mM ATP, ambient temperature; read-out: E. coli DNA gyrase supercoiling IC50
In short: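 Supercoiling reactions quenched with 40 nM 5′-BODIPY-FL triplex-forming oligonucleotide probe in pH 3.5 NaCl/sodium acetate buffer; after 60 min, fluorescence anisotropy read (ex 485/em 535 nm). IC50 by nonlinear regression, normalised to 0.8% DMSO (100% activity) and 5 μM ciprofloxacin (0% activity).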

Row | SMILES | pIC50
1 | C[C@H]1CN2c3c(cc4c(C(F)(F)F)noc4c3F)CC3(C(=O)NC(=O)NC3=O)[C@@H]2[C@@H](C)O1 [Example 92(a), (2S,4R,4aR)-11-fluoro-2,4-dimethyl-8-(trifluoromethyl)-2,4,4a,6-tetrahydro-1H,1′H-spiro[isoxazolo[4,5-g][1,4]oxazino[4,3-a]quinoline-5,5′-pyrimidine]-2′,4′,6′(3′H)-trione] | 4.19
2 | C[C@@H]1CN2c3c(cc4c(N(C)Cc5ccccc5)noc4c3F)CC3(C(=O)NC(=O)NC3=O)[C@H]2[C@H](C)O1 (relative stereo) [Example 32, (2R,4S,4aS)-rel-8-[benzyl(methyl)amino]-11-fluoro-2,4-dimethyl-1,2,4,4a-tetrahydro-2′H,6H-spiro[1,4-oxazino[4,3-a][1,2]oxazolo[4,5-g]quinoline-5,5′-pyrimidine]-2′,4′,6′(1′H,3′H)-trione] | 6.22
3 | C[C@@H]1CN2c3c(cc4c(-c5ccccc5F)noc4c3F)CC3(C(=O)NC(=O)NC3=O)[C@H]2[C@H](C)O1 (relative stereo) [Example 99, (2R,4S,4aS)-rel-11-fluoro-8-(2-fluorophenyl)-2,4-dimethyl-2,4,4a,6-tetrahydro-1H,1′H-spiro[isoxazolo[4,5-g][1,4]oxazino[4,3-a]quinoline-5,5′-pyrimidine]-2′,4′,6′(3′H)-trione] | 6.40
4 | C[C@@H]1CN2c3c(cc4c(-c5ccccn5)noc4c3Cl)CC3(C(=O)NC(=O)NC3=O)[C@H]2[C@H](C)O1 (relative stereo) [Example 38, (2R,4S,4aS)-rel-11-chloro-2,4-dimethyl-8-(pyridin-2-yl)-1,2,4,4a-tetrahydro-2′H,6H-spiro[1,4-oxazino[4,3-a][1,2]oxazolo[4,5-g]quinoline-5,5′-pyrimidine]-2′,4′,6′(1′H,3′H)-trione] | 6.10
